The values that follow come from US8987253B2, “Compound having activity of blocking NMDA receptor channel, and pharmaceutical agent using the same” (National University Corporation Chiba University, priority 2006, dated 2015).

One data set deals with NR1/NR2C (Homo sapiens, UniProt Q05586+Q14957). As to the kind of experiment: Reactivity with NMDA receptor subtype NR1/NR2C expressed on Xenopus oocytes. The format is cell-based. Conditions: AQ444 0.1 to 30 μM, FIG. 2. As to the method:
(§1) AQ444 was added to the perfusion solution to get a final concentration of 0.1 to 30 μM. […] Further, the intensities in channel blocking activity against the receptors were in the order of NR1/NR2A=NR1/NR2B=NR1/NR2D>>NR1/NR2C.

Another data set concerns the target NR1/NR2D (Homo sapiens, UniProt O15399+Q05586). As to the kind of experiment: Reactivity with NMDA receptor subtype NR1/NR2D expressed on Xenopus oocytes. The format is cell-based. Conditions: AQ444 0.1 to 30 μM, FIG. 2. As to the method: as §1
A further data set relates to NR1 mutant N616R. As to the kind of experiment: Channel blocking activity on NMDA receptor mutant NR1 N616R expressed in eggs. Conditions: FIG. 3. The format is cell-based. The source says: (§2) Site-directed mutagenesis was utilized to construct NMDA receptor mutants with amino acid substitutions. The NMDA receptor mutants were expressed in eggs in the same method as shown in Example 1 to investigate for channel blocking activity of AQ444. […] Other relevant amino acid residues on the NMDA receptors are shown in FIG. 4 together with their models.

A further data set deals with NR2B mutant N615Q (Homo sapiens, UniProt Q05586+Q13224, N615Q). As to the kind of experiment: Channel blocking activity on NMDA receptor mutant NR2B N615Q expressed in eggs. The format is cell-based. Conditions: FIG. 3.
From the text: as §2

A further data set concerns the target NR2B mutant N616Q (Homo sapiens, UniProt Q05586+Q13224, N616Q). As to the kind of experiment: Channel blocking activity on NMDA receptor mutant NR2B N616Q expressed in eggs. The format is cell-based. As to conditions: FIG. 3.
From the text: as §2

A further data set deals with NR1 mutant N616Q. As to the kind of experiment: Channel blocking activity on NMDA receptor mutant NR1 N616Q expressed in eggs. Conditions: FIG. 3. The format is cell-based.
From the text: as §2

In a further data set the target is NR1/NR2B (Homo sapiens, UniProt Q05586+Q13224). As to the kind of experiment: Reactivity with NMDA receptor subtype NR1/NR2B expressed on Xenopus oocytes. The format is cell-based. Conditions: AQ444 0.1 to 30 μM, FIG. 2. As to the method: as §1
Chain of NR1/NR2B (Q13224 27-1484, other chains not shown): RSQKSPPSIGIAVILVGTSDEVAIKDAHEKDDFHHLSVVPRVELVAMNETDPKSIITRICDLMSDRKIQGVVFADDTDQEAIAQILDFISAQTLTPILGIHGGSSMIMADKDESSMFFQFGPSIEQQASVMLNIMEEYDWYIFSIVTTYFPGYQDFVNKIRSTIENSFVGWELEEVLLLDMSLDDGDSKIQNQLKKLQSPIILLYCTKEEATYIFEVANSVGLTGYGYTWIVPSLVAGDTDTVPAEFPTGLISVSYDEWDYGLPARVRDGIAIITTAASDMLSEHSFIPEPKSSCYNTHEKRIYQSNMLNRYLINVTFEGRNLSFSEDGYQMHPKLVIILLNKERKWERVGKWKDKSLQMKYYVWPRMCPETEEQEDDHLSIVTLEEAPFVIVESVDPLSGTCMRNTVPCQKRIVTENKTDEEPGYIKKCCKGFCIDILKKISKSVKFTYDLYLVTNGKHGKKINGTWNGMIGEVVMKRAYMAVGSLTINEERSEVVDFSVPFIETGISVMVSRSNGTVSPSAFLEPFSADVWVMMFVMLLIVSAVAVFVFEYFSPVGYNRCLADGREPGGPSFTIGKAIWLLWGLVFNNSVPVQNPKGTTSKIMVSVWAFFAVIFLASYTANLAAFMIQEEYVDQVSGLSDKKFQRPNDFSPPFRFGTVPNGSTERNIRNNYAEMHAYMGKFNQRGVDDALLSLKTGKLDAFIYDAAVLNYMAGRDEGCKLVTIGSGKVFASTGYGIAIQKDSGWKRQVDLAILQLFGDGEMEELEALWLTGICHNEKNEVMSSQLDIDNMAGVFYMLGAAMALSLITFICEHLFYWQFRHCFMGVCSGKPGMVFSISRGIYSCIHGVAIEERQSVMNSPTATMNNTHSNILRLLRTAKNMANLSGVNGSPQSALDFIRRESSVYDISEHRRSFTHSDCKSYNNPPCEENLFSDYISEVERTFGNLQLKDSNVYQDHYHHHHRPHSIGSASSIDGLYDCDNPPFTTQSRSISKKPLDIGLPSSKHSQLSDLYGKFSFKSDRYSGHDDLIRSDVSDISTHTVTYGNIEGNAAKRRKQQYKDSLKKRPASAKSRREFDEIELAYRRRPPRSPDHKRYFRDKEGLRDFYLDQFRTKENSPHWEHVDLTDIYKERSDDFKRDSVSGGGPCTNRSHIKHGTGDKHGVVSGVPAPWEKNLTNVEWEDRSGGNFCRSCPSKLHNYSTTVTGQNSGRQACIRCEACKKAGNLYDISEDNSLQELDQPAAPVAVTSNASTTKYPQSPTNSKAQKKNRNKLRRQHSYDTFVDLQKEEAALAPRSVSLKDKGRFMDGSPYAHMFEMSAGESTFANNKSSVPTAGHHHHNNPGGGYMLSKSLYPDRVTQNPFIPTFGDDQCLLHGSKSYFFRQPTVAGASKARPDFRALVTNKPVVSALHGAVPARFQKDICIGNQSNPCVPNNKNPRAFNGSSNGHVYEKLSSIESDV
A further data set concerns the target NR1/NR2A (Homo sapiens, UniProt Q05586+Q12879). As to the kind of experiment: Channel blocking activity on NMDA receptors (NR1/NR2A) expressed on Xenopus oocytes, two electrode voltage clamp. As to conditions: for voltage dependence of channel blocking activity: membrane potential changed from −150 mV to +10 mV. Background: In two-electrode clamp one electrode senses voltage and the other passes current.

Another data set is described as follows: Cytotoxicity. The format is cell-based.
Where [1] appears, read: read-out: 50% inhibition concentration (IC50) of channel blocking activity, membrane potential clamp at −70 mV, 10 μM glycine and 10 μM glutamic acid, Xenopus oocytes.

Where two headings read alike, the source gives them in different places.

Chain of NR1/NR2A (Q12879 23-1464, other chains not shown): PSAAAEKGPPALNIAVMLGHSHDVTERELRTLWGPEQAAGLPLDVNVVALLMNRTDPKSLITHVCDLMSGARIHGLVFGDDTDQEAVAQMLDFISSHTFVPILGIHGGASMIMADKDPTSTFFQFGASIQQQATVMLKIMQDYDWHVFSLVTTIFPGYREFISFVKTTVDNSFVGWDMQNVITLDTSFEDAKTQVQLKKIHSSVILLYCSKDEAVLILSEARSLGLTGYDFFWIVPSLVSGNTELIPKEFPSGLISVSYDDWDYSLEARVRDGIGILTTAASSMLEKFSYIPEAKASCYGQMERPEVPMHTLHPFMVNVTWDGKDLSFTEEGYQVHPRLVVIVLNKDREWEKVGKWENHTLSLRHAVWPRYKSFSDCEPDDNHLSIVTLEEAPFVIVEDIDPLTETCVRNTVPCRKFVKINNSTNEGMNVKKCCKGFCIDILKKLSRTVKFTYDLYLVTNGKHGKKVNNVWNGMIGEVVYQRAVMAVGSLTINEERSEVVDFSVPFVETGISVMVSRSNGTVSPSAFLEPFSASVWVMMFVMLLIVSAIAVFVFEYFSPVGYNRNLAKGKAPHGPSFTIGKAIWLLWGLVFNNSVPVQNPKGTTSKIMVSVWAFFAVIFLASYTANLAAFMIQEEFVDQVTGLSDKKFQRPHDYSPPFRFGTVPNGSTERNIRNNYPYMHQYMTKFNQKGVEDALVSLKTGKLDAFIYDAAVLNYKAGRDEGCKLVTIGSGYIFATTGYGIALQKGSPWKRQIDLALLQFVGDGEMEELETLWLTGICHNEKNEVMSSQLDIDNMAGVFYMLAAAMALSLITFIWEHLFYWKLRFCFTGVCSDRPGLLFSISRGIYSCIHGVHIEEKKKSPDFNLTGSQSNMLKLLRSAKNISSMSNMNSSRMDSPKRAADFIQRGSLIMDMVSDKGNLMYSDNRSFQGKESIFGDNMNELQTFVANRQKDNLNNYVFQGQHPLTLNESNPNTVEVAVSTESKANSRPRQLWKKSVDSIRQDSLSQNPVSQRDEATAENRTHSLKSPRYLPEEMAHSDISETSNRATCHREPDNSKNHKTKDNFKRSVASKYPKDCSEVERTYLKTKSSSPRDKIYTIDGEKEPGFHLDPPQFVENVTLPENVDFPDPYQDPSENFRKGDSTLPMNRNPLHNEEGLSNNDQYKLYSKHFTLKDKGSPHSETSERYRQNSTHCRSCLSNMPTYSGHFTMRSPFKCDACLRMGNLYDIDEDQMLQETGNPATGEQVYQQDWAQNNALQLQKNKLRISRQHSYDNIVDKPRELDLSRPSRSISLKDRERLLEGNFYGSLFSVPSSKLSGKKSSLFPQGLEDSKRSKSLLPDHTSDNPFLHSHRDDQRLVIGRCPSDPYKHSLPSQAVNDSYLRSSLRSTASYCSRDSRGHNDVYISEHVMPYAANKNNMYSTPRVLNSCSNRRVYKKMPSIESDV
Chain of NR1/NR2C (Q14957 20-1233, other chains not shown): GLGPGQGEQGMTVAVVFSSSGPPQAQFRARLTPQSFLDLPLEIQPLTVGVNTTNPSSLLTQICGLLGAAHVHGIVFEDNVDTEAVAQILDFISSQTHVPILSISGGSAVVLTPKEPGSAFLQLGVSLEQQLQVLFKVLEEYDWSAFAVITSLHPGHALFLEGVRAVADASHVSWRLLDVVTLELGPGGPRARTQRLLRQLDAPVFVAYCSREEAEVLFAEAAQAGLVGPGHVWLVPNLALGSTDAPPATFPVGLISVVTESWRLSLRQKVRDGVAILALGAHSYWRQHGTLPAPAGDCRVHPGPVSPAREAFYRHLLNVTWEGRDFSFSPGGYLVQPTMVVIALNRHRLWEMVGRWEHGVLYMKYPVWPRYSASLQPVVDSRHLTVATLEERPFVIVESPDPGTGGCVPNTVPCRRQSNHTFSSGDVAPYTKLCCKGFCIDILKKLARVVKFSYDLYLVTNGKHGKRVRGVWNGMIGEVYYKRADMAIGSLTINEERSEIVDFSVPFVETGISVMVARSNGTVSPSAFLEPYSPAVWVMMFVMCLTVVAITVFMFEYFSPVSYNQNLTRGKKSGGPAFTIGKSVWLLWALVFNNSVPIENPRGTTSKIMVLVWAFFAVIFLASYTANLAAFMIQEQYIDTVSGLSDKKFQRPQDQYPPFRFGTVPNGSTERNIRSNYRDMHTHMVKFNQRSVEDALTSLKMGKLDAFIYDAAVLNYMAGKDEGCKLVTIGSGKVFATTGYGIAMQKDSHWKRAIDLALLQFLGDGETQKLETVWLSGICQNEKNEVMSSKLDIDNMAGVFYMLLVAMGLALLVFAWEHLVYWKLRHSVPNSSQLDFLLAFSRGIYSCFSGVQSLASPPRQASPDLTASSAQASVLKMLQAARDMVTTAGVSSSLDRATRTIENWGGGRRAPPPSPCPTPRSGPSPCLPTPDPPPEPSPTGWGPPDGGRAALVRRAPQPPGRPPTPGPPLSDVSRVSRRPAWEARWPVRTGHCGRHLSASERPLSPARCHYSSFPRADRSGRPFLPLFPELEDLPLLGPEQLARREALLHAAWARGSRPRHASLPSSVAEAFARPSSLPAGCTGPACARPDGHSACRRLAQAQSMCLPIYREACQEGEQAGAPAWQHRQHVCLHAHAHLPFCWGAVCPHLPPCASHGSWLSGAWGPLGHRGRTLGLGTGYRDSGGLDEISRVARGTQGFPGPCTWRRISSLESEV
Method for NR1/NR2A: The cDNA clones for NMDA receptors were used to prepare the cRNAs, which were then injected in Xenopus oocytes. The cRNAs of subtype 1 (NR1) and subtype 2 (NR2A) of NMDA receptors were injected in a Xenopus oocyte in a ratio of 1:5 (0.1 ng of NR1 and 0.5 ng of NR2A) and incubated in an incubator for several days to express the NMDA receptors on the membrane of the developed egg. The expression was confirmed by a two electrode voltage clamp system. A glass capillary was filled with a 3M potassium chloride solution for use as an electrode, which was then inserted into an egg placed in a perfusion solution to measure a change in membrane potential. The perfusion solution used comprised 100 mM sodium chloride, 2 mM potassium chloride, 1.8 mM barium chloride and 10 mM HEPES, pH 7.5.

Take `NCCCCNCCCCNCCCCNC(=O)c1ccc2c(c1)C(=O)c1ccccc1C2=O` [AQ444, Anthraquinone Homospermine]: the “order of intensity in channel blocking activity among subtypes” value was “NR1/NR2A=NR1/NR2B=NR1/NR2D>>NR1/NR2C” at NR1/NR2C; “NR1/NR2A=NR1/NR2B=NR1/NR2D>>NR1/NR2C” at NR1/NR2D; “NR1/NR2A=NR1/NR2B=NR1/NR2D>>NR1/NR2C” at NR1/NR2B; “NR1/NR2A=NR1/NR2B=NR1/NR2D>>NR1/NR2C” at NR1/NR2A (NR1/NR2A, AQ444 0.1 to 30 μM, FIG. 2). Moreover, the “channel blocking activity on mutant” value with NR1 mutant N616R, on NR2B mutant N615Q, at NR2B mutant N616Q and in the data set on NR1 mutant N616Q was “significantly decreased channel blocking activity” in each case. For the same molecule, the IC50 against NR1/NR2A turned out to be 0.47 µM. Also, the “voltage dependence of channel blocking activity” value (from here on “voltage dependence”) on NR1/NR2A is reported as “showed voltage dependence”.

Take `NCCCCNCCCCNCCCCNC(=O)N1c2ccccc2CCc2ccccc21` [DDBA444, Dihydrodibenzoazepine Homospermine]: the “voltage dependence” value on NR1/NR2A is “in a voltage-dependent manner”. Further, the IC50 at NR1/NR2A (setting [1]) came to 0.072 µM; in “Cytotoxicity”, 133 µM.

In the data set “Cytotoxicity”, `CC12CC3CC(C)(C1)CC(N)(C3)C2` [memantine, reference compound] gave an IC50 of 147 µM.

`NCCCNCCCCNCCCNC(=O)n1c2ccccc2c2ccccc21` [carbazole spermine, Carbazole Spermine] displayed an IC50 against NR1/NR2A of 15 µM.

As to `NCCCCNCCCCNCCCCNC(=O)N1c2ccccc2C=Cc2ccccc21` [DBA444, Dibenzoazepine Homospermine], the “voltage dependence” value on NR1/NR2A is given as “in a voltage-dependent manner”. In addition, the values for the IC50 on NR1/NR2A (setting [1]) and in “Cytotoxicity” were 0.24 µM and 132 µM, respectively.
